Results on 37 compounds are retold here after patent US10688082B2, “Aminopyrazine compounds with A2A antagonist properties” (Merck Sharp & Dohme Corp., priority 2015, dated 2020).

The test deals with T1, human A2a receptor (Homo sapiens, UniProt P29274).
T1 construct: purchased Perkin-Elmer RBHA2AM400UA; host or cells: HEK293 cells (membranes)
T1 sequence (P29274 whole entry): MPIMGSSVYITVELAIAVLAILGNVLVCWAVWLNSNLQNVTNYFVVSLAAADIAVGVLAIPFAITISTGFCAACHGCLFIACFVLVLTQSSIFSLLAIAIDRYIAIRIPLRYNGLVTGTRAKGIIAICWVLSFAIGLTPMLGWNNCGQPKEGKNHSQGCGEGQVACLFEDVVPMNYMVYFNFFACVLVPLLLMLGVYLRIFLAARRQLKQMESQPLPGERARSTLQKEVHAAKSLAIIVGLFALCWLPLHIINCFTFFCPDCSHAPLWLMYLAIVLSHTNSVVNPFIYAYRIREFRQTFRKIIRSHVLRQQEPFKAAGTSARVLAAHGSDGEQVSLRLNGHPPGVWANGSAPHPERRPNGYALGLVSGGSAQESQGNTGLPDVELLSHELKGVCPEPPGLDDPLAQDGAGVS
Description: Competition binding assay using Scintillation Proximity technology (A2a activity). The conditions noted are these: membranes from HEK293 cells expressing the human A2a receptor; 0.5 nM tritiated ligand; Cheng-Prusoff. As to the method: Binding affinities of compounds of the invention for the human A2a receptor were determined in a competition binding assay using Scintillation Proximity technology. Thus, […] from HEK293 cells expressing the human A2a receptor were incubated with a compound of the invention at concentrations ranging from 3000 nM to 0.15 nM in a reaction mixture containing also 0.5 nM of a tritiated form of 5-amino-7-[2-phenethyl]-2-(furan-2-yl)-7H-pyrazolo[4,3-e][1,2,4]triazolo[1,5-c]pyrimidine (the tritiated compound) and 100 μg of wheat germ agglutin-coated yttrium silicate SPA beads for one hour at room temperature with agitation. The beads were then allowed to settle to the bottom of the wells for 1 hr, after which the membrane-associated radioactivity was determined by scintillation counting in a TopCount microplate reader. Ki values were determined using the Cheng-Prusoff equation.
HEK293 cells expressing the human, rat, dog or monkey adenosine 2a receptor (Purchased from Perkin-Elmer # RBHA2AM400UA).
The Tritiated compound was prepared according to published methods.
Wheat germ agglutinin-coated yttrium silicate SPA beads (GE Healthcare # RPNQ0023). Dilute to 25 mg/ml in assay buffer.
Assay Buffer was prepared using Dulbecco's calcium and magnesium free phosphate buffered saline+10 mM MgCl2
Adenosine deaminase from calf intestine, 10 mg/2 ml (Roche #10 102 105 001).
A2a antagonist standard (9-chloro-1-(2-furanyl)-[1,2,4]triazolo1,5-c]quinazolin-5-amine from Tocris Bioscience)
Make eight 1:3 serial dilutions in 100% DMSO from a 3 mM compound stock
Transfer 50 nl of compound into a 384-well OptiPlate (Perkin Elmer).
Typically, final concentrations of compound used in the assay ranged from 3000 nM to 0.152 nM.
Dilute a solution of the Tritiated compound to 1.25 nM in assay buffer. This is a 2.5× solution. The final concentration in the assay is 0.5 nM. Calculate the concentration by counting two 5 μl aliquots.
Use 0.25 ug of membrane/well. Dilute membranes to 9.7 μg/ml in assay buffer. Treat with 20 ug/ml adenosine deaminase (ADA) for 15 minutes at room temperature to degrade endogenous adenosine.
Use 100 μg/well wheat germ agglutinin-coated yttrium silicate SPA beads.
Mix ADA-treated membranes and SPA beads together for 30 min prior to assay.
To the Perkin-Elmer Optiplate-384 containing the compound titration add 20 μl of 2.5× solution of the Tritiated compound and 30 μl of the membrane-bead mixture. Incubate for one hour at room temperature with agitation.
Include total binding (assay buffer+1% DMSO) and non-specific binding (CGS15943, 1 μM) wells.
Allow the beads to settle for one hour.
A curve fitting program (i.e., Prism, Activity Base, Chemcart) is used to determine the EC50. The Ki value is calculated using the Cheng-Prusoff equation. K i=EC50/(1+(radioligand concentration/Kd))
On the technique in general: In a scintillation proximity assay essentially only radioactivity close to the scintillant gives light.
Take `COc1cccc2c1nc(N)n1nc(Cc3cccnc3N3CCOCC3)cc21` [Ex-20, 7-methoxy-2-((2-morpholinopyridin-3-yl)methyl)pyrazolo[1,5-c]quinazolin-5-amine]: affinity was put at a Ki of 15 nM.

On to `COc1cccc2c1nc(N)n1nc(Cc3ccccc3CN3CCOCC3)cc21` [Ex-21, 7-methoxy-2-(2-(morpholinomethyl)benzyl)pyrazolo[1,5-c]quinazolin-5-amine], for which the Ki (usually a measure of affinity in units of concentration, obtained from inhibition or displacement) is 51 nM.

On to `COc1cccc2c1nc(N)n1nc(Cc3ccc(N4CCOCC4)cc3)cc21` [Ex-22, 7-methoxy-2-(4-morpholinobenzyl)pyrazolo[1,5-c]quinazolin-5-amine], for which the affinity corresponds to a Ki of 128 nM.

`COc1cccc2c1nc(N)n1nc(Cc3cccc(N4CCOCC4)c3)cc21` [Ex-23, 7-methoxy-2-(3-morpholinobenzyl)pyrazolo[1,5-c]quinazolin-5-amine] showed a Ki of 26 nM.

`COc1cccc2c1nc(N)n1nc(Cc3ccc(N4CCN(C(=O)OC(C)(C)C)CC4)cc3)cc21` [Ex-24, tert-butyl 4-(4-((5-amino-7-methoxypyrazolo[1,5-c]quinazolin-2-yl)methyl)phenyl)piperazine-1-carboxylate] had a Ki of 224 nM.

Consider `COc1cccc2c1nc(N)n1nc(Cc3ccc(N4CCNCC4)cc3)cc21` [Ex-25, 7-methoxy-2-(4-(piperazin-1-yl)benzyl)pyrazolo[1,5-c]quinazolin-5-amine], for which affinity was put at a Ki of 333 nM.

As to `CCN1CCN(c2ccccc2Cc2cc3c4cccc(OC)c4nc(N)n3n2)CC1` [Ex-26, 2-(2-(4-ethylpiperazin-1-yl)benzyl)-7-methoxypyrazolo[1,5-c]quinazolin-5-amine], the inhibitory constant (Ki) was determined as 120 nM.

Take `COc1cccc2c1nc(N)n1nc(Cc3ccccc3CN3CCC(C)(O)CC3)cc21` [Ex-27, 1-(2-((5-amino-7-methoxypyrazolo[1,5-c]quinazolin-2-yl)methyl)benzyl)-4-methylpiperidin-4-ol]: the affinity corresponds to a Ki of 18 nM.

On to `COc1cccc2c1nc(N)n1nc(Cc3ccccc3CN3CC(O)C3)cc21` [Ex-28, 1-(2-((5-amino-7-methoxypyrazolo[1,5-c]quinazolin-2-yl)methyl)benzyl)azetidin-3-ol], for which the inhibition constant (Ki) was determined as 9 nM.

As to `COc1cccc2c1nc(N)n1nc(Cc3ccccc3CN3CCCC3)cc21` [Ex-29, 7-methoxy-2-(2-(pyrrolidin-1-ylmethyl)benzyl)pyrazolo[1,5-c]quinazolin-5-amine], the Ki was found to be 17 nM.

`COc1cccc2c1nc(N)n1nc(Cc3ccccc3F)cc21` [Ex-30, 2-(2-fluorobenzyl)-7-methoxypyrazolo[1,5-c]quinazolin-5-amine] gave a Ki of 1 nM.

On to `COc1cccc2c1nc(N)n1nc(Cc3cccc(F)c3)cc21` [Ex-31, 2-(3-fluorobenzyl)-7-methoxypyrazolo[1,5-c]quinazolin-5-amine], for which the affinity, expressed as Ki, was 2 nM.

For `COc1ccccc1Cc1cc2c3cccc(OC)c3nc(N)n2n1` [Ex-32, 7-methoxy-2-(2-methoxybenzyl)pyrazolo[1,5-c]quinazolin-5-amine], the affinity, expressed as Ki, was 1 nM.

`COc1ccc(Cc2cc3c4cccc(OC)c4nc(N)n3n2)cc1` [Ex-33, 7-methoxy-2-(4-methoxybenzyl)pyrazolo[1,5-c]quinazolin-5-amine]: the Ki came to 32 nM.

In turn, `COc1cccc(Cc2cc3c4cccc(OC)c4nc(N)n3n2)c1` [Ex-34, 7-methoxy-2-(3-methoxybenzyl)pyrazolo[1,5-c]quinazolin-5-amine] displayed a Ki of 7 nM.

`COc1cccc2c1nc(N)n1nc(Cc3ccc(C(F)(F)F)cc3)cc21` [Ex-35, 7-methoxy-2-(4-(trifluoromethyl)benzyl)pyrazolo[1,5-c]quinazolin-5-amine] gave a Ki of 130 nM.

As to `COc1cccc2c1nc(N)n1nc(Cc3cccc(C(F)(F)F)c3)cc21` [Ex-36, 7-methoxy-2-(3-(trifluoromethyl)benzyl)pyrazolo[1,5-c]quinazolin-5-amine], the Ki turned out to be 12 nM.

The compound `COc1cccc2c1nc(N)n1nc(Cc3cnn(C)c3)cc21` [Ex-37, 7-methoxy-2-((1-methyl-1H-pyrazol-4-yl)methyl)pyrazolo[1,5-c]quinazolin-5-amine] yielded a Ki of 15 nM.

Consider `COc1cccc2c1nc(N)n1nc(Cc3c(F)cccc3Cl)cc21` [Ex-38, 2-(2-chloro-6-fluorobenzyl)-7-methoxypyrazolo[1,5-c]quinazolin-5-amine], for which the Ki turned out to be 25 nM.

Consider `COc1cccc2c1nc(N)n1nc(Cc3ccc(F)c(F)c3F)cc21` [Ex-39, 7-methoxy-2-(2,3,4-trifluorobenzyl)pyrazolo[1,5-c]quinazolin-5-amine], for which the Ki was found to be 27 nM.

On to `COc1cccc2c1nc(N)n1nc(Cc3cccc(F)c3F)cc21` [Ex-40, 2-(2,3-difluorobenzyl)-7-methoxypyrazolo[1,5-c]quinazolin-5-amine], for which the affinity corresponds to a Ki of 6 nM.

On to `COc1cccc2c1nc(N)n1nc(Cc3cccc4[nH]ccc34)cc21` [Ex-41, 2-((1H-indol-4-yl)methyl)-7-methoxypyrazolo[1,5-c]quinazolin-5-amine], for which the affinity, expressed as Ki, was 5 nM. The Ki values of the last two compounds are within 1.5-fold of each other.

Turning to `COc1cccc2c1nc(N)n1nc(Cc3c(F)cccc3F)cc21` [Ex-42, 2-(2,6-difluorobenzyl)-7-methoxypyrazolo[1,5-c]quinazolin-5-amine], the Ki was 3 nM.

`COc1cccc2c1nc(N)n1nc(Cc3cccc(Cl)c3Cl)cc21` [Ex-43, 2-(2,3-dichlorobenzyl)-7-methoxypyrazolo[1,5-c]quinazolin-5-amine]: the Ki amounted to 80 nM.

With `COc1cccc2c1nc(N)n1nc(Cc3cccc4cnccc34)cc21` [Ex-44, 2-(isoquinolin-5-ylmethyl)-7-methoxypyrazolo[1,5-c]quinazolin-5-amine], the Ki was determined as 18 nM. Compared with the last compound, the Ki is about 4.4-fold lower.

The compound `COc1cccc2c1nc(N)n1nc(Cc3ccccc3Cl)cc21` [Ex-45, 2-(2-chlorobenzyl)-7-methoxypyrazolo[1,5-c]quinazolin-5-amine] displayed a Ki of 10 nM.

With `COc1cccc2c1nc(N)n1nc(Cc3ccccc3OC(F)(F)F)cc21` [Ex-46, 7-methoxy-2-(2-(trifluoromethoxy)benzyl)pyrazolo[1,5-c]quinazolin-5-amine], the Ki stood at 34 nM.

Turning to `COc1cccc2c1nc(N)n1nc(Cc3ccccc3N(C)C)cc21` [Ex-47, 2-(2-(dimethylamino)benzyl)-7-methoxypyrazolo[1,5-c]quinazolin-5-amine], affinity was put at a Ki of 1 nM.

For the compound `COCc1cccc(Cc2cc3c4cccc(OC)c4nc(N)n3n2)c1` [Ex-48, 7-methoxy-2-(3-(methoxymethyl)benzyl)pyrazolo[1,5-c]quinazolin-5-amine], the affinity, expressed as Ki, was 40 nM.

`COc1cccc2c1nc(N)n1nc(Cc3cccc(Cl)c3)cc21` [Ex-49, 2-(3-chlorobenzyl)-7-methoxypyrazolo[1,5-c]quinazolin-5-amine] had a Ki of 35 nM.

Compound `COc1cccc2c1nc(N)n1nc(Cc3ccccc3C#N)cc21` [Ex-50, 2-((5-amino-7-methoxypyrazolo[1,5-c]quinazolin-2-yl)methyl)benzonitrile] gave a Ki of 2 nM. Compared with the last compound, the Ki is about 18-fold lower.

`COc1cccc2c1nc(N)n1nc(Cc3ccccc3OCc3ccccc3)cc21` [Ex-51, 2-(2-(benzyloxy)benzyl)-7-methoxypyrazolo[1,5-c]quinazolin-5-amine] yielded a Ki of 128 nM.

For the compound `COc1cccc2c1nc(N)n1nc(Cc3cccc(C#N)c3)cc21` [Ex-52, 3-((5-amino-7-methoxypyrazolo[1,5-c]quinazolin-2-yl)methyl)benzonitrile], affinity was put at a Ki of 33 nM.

The compound `COc1cccc2c1nc(N)n1nc(Cc3cccc4ccsc34)cc21` [Ex-53, 2-(benzo[b]thiophen-7-ylmethyl)-7-methoxypyrazolo[1,5-c]quinazolin-5-amine] returned a Ki of 48 nM.

On to `COc1cccc2c1nc(N)n1nc(Cc3cccc(-n4nc(C)cc4C)c3)cc21` [Ex-54, 2-(3-(3,5-dimethyl-1H-pyrazol-1-yl)benzyl)-7-methoxypyrazolo[1,5-c]quinazolin-5-amine], for which the affinity corresponds to a Ki of 139 nM.

`COc1cccc2c1nc(N)n1nc(Cc3ccccc3OC(F)F)cc21` [Ex-55, 2-(2-(difluoromethoxy)benzyl)-7-methoxypyrazolo[1,5-c]quinazolin-5-amine] displayed a Ki of 10 nM.

With `COc1cccc2c1nc(N)n1nc(Cc3cccc4c3CNC4=O)cc21` [Ex-56, 4-((5-amino-7-methoxypyrazolo[1,5-c]quinazolin-2-yl)methyl)isoindolin-1-one], the Ki came to 49 nM.
